Assay results reported in patent US7759101B2, “Ginsenoside glycosidases hydrolyzing ginsenoside sugar moieties and uses thereof” (priority 2000, dated 2010).

What was measured:
[1] = tested on: ginsenoside glycosidases from A. oryzae; assay: Hydrolysis of ginsenosides with crude ginsenoside glycosidases from A. oryzae, TLC; type: biochemical, Aspergillus oryzae; settings: pH 5.0, 30° C., 18 hours
Description: (§1) Aspergillus oryzae FFCCDL-39 g (available from Food Fermentation Culture Collection of Dalian Institute of Light Industry) was cultured with stirring in a medium containing 1% ginseng extracts and 3% wheat bran extracts at 30° C. for 64 hours. Cells were removed by centrifugation, after which (NH4)2SO4 powder was added to 2000 ml of the cell-free supernatant with stirring to 65% saturation. The solution was stored overnight at 4° C. and precipitated proteins were collected by centrifugation, resuspended in 80 ml of distilled water and dialyzed against 0.01M acetate buffer pH 5. Insolubles were removed by centrifugation, and the solution was adjusted to 200 ml with 0.01 M acetate buffer pH 5. The crude enzyme solution may be used to hydrolyze ginsenosides or to purify the enzymes.
Each 100 mg of ginsenosides Rb1, Rb2, Rc Re and Rd and each 10 mg of ginsenoside Rg3 and Rg2 were dissolved in separate tubes containing 10 ml of 0.01M acetate buffer pH 5. 10 ml of the crude enzyme solution obtained as above was added to each tube and allowed to react at 30° C. for 18 hours. Then 10 ml of n-butanol was added to stop the reactions. The products were measured by thin layer chromatography (TLC) (Silica gel 60-F254, Merck; chloroform:methanol:water 70:30:5). […]

[2] = tested on: ginsenoside glycosidases from wheat bran; assay: Hydrolysis of ginsenosides with ginsenoside glycosidases from wheat bran; type: biochemical; settings: for Percentage of F2 in the reaction product / Percentage of Rd in the reaction product: 10 ml of 1% ginsenoside substrate, 40° C., 20 hours; for effect of metal ion on the enzyme activity: enzymes from wheat bran
Description: 500 g of wheat bran was added to 2500 ml of 0.02 M acetate buffer pH 5 and extracted at 40° C. for 2 hours. 2000 ml of supernatant were obtained by filtration to which (NH4)2SO4 was added gradually with stirring until 70% saturation. The mixture stand at 4° C. overnight. Protein pellets were collected by centrifugation and redissolved in 80 ml of distilled water and dialyzed against 0.02 M acetate buffer pH 5.0. Insolubles were removed by centrifugation and the supernatant was adjusted to a volume of 200 ml to obtain the crude enzyme solution.
10 ml of the enzyme solution was allowed to react with 10 ml of 1% ginsenoside substrate at 40° C. for 20 hours.

[3] = tested on: ginsenoside glycosidase I from ginseng plants; assay: Hydrolysis of ginsenosides with fraction 52 (ginsenoside glycosidase I) from ginseng plant; type: biochemical; settings: for Percentage of F2 in the reaction product / Percentage of Rd in the reaction product: Fraction 52, substrate 0.5%, 50° C., pH 5.0, 18 hours; for effect of metal ion on the enzyme: ginsenoside glycosidase I from ginseng plant
Description: (§2) 200 g of fresh ginseng root was cut into pieces and added to 600 ml of 0.02 M acetate buffer pH 5. Supernatant was obtained by filtration after the mixture stand at 40° C. for 2 hours. To the supernatant (NH4)2SO4 was added gradually until 70% saturation and the mixture stand overnight at 4° C. Then protein pellets were collected by centrifugation and redissolved in 15 ml of distilled water. The solution was dialyzed against 0.02 M Tris-HCl pH 7.4. Insolubles were removed by centrifugation and the volume of the supernatant was adjusted to 20 ml.
(§3) 5 ml of the enzyme solution was subjected to a DEAE-Cellulose DE-25 column (Whatman, 1.4×6.7 cm). The column was eluted with a KCl gradient (0.06, 0.12, 0.18 and 0.24 M) in 0.02 M Tris-HCl pH 7.4. After elution, each fraction was tested for the activity of hydrolyzing ginsenosides. […] Fraction 52 can also hydrolyze the glucosidic bond at the twentieth carbon atom of Rb and Rc to give ginsenoside F2.

[4] = tested on: ginsenoside glycosidase I; assay: Hydrolysis of ginsenosides with Fraction 36 (ginsenoside glycosidase I); type: biochemical, Aspergillus niger; settings: Fraction 36; substrates Rb1, Rb2, Rc, Rd 0.5%; Rg3, F2, Rh2, C—K, Rg2 0.05%; pH 5.0, 30° C.
Description: 10 ml of the enzyme solution obtained in 1.1 was subjected to a DEAE-Cellulose DE-52 column (Pharamcia, 1.5×6.7 cm) to absorb the enzyme protein. The column was then eluted with a NaCl gradient (0.06, 0.12, 0.18, 0.24, 0.3, 0.4, 0.5 and 0.6M).
Fractions 36 and 54 from the DEAE-Cellulose column appeared as one dot on a SDS-polyacrylamide gel, representing the purified enzymes.
Fraction 36 which was eluted with 0.12 M NaCl from the DEAE-Cellulose column was lyophilized and appeared as a single dot with a molecular weight of 51,000 Daltons when running on a SDS-polyacrylamide gel.
To observe the differences between the ginsenoside glycosidases of the invention and known exo-cellulases, the ginsenoside glycosidases of the invention were compared with cellulose β-glucosidase (E.C. 3.2.1.21) in two reactions with 0.5% ginsenosides Rb1 or Rd as substrate.

[5] = tested on: ginsenoside glycosidases from A. niger; assay: Hydrolysis of ginsenosides with crude ginsenoside glycosidases from A. niger, products measured by TLC; type: biochemical, Aspergillus niger; settings: for effect of metal ions on the enzyme reaction: hydrolysis of Rb1, pH 5.0, 30°C.
Description: as §1, with “niger FFCCDL-48” for “oryzae FFCCDL-39”, “g” for “g (available from Food Fermentation Culture Collection of Dalian Institute of Light Industry)”, “cultured” for “cultured with stirring”, “54” for “64”
100 mg each of ginsenosides Rb1, Rb2, Rc and Rd and 10 mg of ginsenoside Rg3 were dissolved in separate tubes containing 10 ml of 0.01M acetate buffer pH 5. 10 ml of the crude enzyme solution obtained in 1.1 was added to each tube and allowed to react at 30° C. for 18 hours. Then 10 ml of n-butanol was added to stop the reactions. The products were measured by thin layer chromatography (TLC) (Silica gel 60-F254, Merck; chloroform:methanol:water 70:30:5).
Experiments were carried out to explore the effects of temperature, pH, metal ions and reaction time on the enzyme reaction, in order to further characterize the enzymes.
100 mg of ginsenoside Rb1 was used in a reaction under the conditions as described in 1.2 and the effect of temperature was shown in Table 2.

[6] = tested on: ginsenoside glycosidase III from ginseng plant; assay: Hydrolysis of Rd with fraction 37 (ginsenoside glycosidase III) from ginseng plant; type: biochemical; settings: ginsenoside glycosidase III from ginseng plant
Description: as §2, §3

CC(C)=CCC[C@](C)(O[C@@H]1O[C@H](CO)[C@@H](O)[C@H](O)[C@H]1O)[C@H]1CC[C@]2(C)[C@@H]1[C@H](O)C[C@@H]1[C@@]3(C)CC[C@H](O)C(C)(C)[C@@H]3[C@@H](O[C@@H]3O[C@H](CO)[C@@H](O)[C@H](O)[C@H]3O[C@@H]3O[C@@H](C)[C@H](O)[C@@H](O)[C@H]3O)C[C@]12C [Re, ginsenoside Re]
Percentage of Re in the reaction product [1]: 20%
Percentage of Rg1 in the reaction product [1]: 73%
Percentage of Rh1 in the reaction product [1]: 2%
Percentage of aglycone in the reaction product [1]: 5%

CC(C)=CCC[C@](C)(O[C@@H]1O[C@H](CO[C@@H]2O[C@@H](CO)[C@H](O)[C@H]2O)[C@@H](O)[C@H](O)[C@H]1O)[C@H]1CC[C@]2(C)[C@@H]1[C@H](O)C[C@@H]1[C@@]3(C)CC[C@H](O[C@@H]4O[C@H](CO)[C@@H](O)[C@H](O)[C@H]4O[C@@H]4O[C@H](CO)[C@@H](O)[C@H](O)[C@H]4O)C(C)(C)[C@@H]3CC[C@]12C [Rc, ginsenoside Rc]
Percentage of F2 in the reaction product [2]: 55%
Percentage of Rd in the reaction product [2]: 43%
Percentage of F2 in the reaction product [3]: 55%
Percentage of Rd in the reaction product [3]: 45%
Percentage of C—K in the reaction product [1]: 56%
Percentage of F2 in the reaction product [1]: 30%
Percentage of Rd in the reaction product [1]: 19%
Percentage of aglycone in the reaction product [1]: 5%
Percentage of C—K in the reaction product [4]: 52%
Percentage of F2 in the reaction product [4]: 36%
Percentage of Rd in the reaction product [4]: 8%
Percentage of Rh2 in the reaction product [4]: 2%
Percentage of aglycone in the reaction product [4]: 2%
Percentage of C—K in the reaction product ([5]; pH 5, 30° C., 18 hours): 15%
Percentage of F2 in the reaction product ([5]; pH 5, 30° C., 18 hours): 58%
Percentage of Rc in the reaction product ([5]; pH 5, 30° C., 18 hours): 8%
Percentage of Rd in the reaction product ([5]; pH 5, 30° C., 18 hours): 12%
Percentage of Rh2 in the reaction product ([5]; pH 5, 30° C., 18 hours): 2%
Percentage of aglycone in the reaction product ([5]; pH 5, 30° C., 18 hours): 5%

CC(C)=CCC[C@](C)(O[C@@H]1O[C@H](CO)[C@@H](O)[C@H](O)[C@H]1O)[C@H]1CC[C@]2(C)[C@@H]1[C@H](O)C[C@@H]1[C@@]3(C)CC[C@H](O[C@@H]4O[C@H](CO)[C@@H](O)[C@H](O)[C@H]4O)C(C)(C)[C@@H]3CC[C@]12C [F2, ginsenoside F2]
Percentage of C—K in the reaction product [4]: 62%
Percentage of F2 in the reaction product [4]: 30%
Percentage of Rh2 in the reaction product [4]: 3%
Percentage of aglycone in the reaction product [4]: 5%

CC(C)=CCC[C@](C)(O)[C@H]1CC[C@]2(C)[C@@H]1[C@H](O)C[C@@H]1[C@@]3(C)CC[C@H](O[C@@H]4O[C@H](CO)[C@@H](O)[C@H](O)[C@H]4O)C(C)(C)[C@@H]3CC[C@]12C [Rh2, ginsenoside Rh2]
Percentage of Rh2 in the reaction product [4]: 89%
Percentage of aglycone in the reaction product [4]: 10%

[Mg+2] [Mg^++]
effect of metal ion on the enzyme activity [2]: enhance the enzyme activity
effect of metal ions on the enzyme reaction [5]: slightly accelerate the conversion rate

CC(C)=CCC[C@](C)(O)[C@H]1CC[C@]2(C)[C@@H]1[C@H](O)C[C@@H]1[C@@]3(C)CC[C@H](O)C(C)(C)[C@@H]3[C@@H](O[C@@H]3O[C@H](CO)[C@@H](O)[C@H](O)[C@H]3O[C@@H]3O[C@@H](C)[C@H](O)[C@@H](O)[C@H]3O)C[C@]12C [Rg2, ginsenoside Rg2]
Percentage of Rg2 in the reaction product [1]: 32%
Percentage of Rh1 in the reaction product [1]: 75%
Percentage of aglycone in the reaction product [1]: 3%
Percentage of Rg2 in the reaction product [4]: 100%

[Fe+2] [Fe^++]
effect of metal ion on the enzyme activity [2]: enhance the enzyme activity

[Pb+2] [Pb^++]
effect of metal ions on the enzyme reaction [5]: inhibit the reaction

CC(C)=CCC[C@](C)(O[C@@H]1O[C@H](CO[C@@H]2OC[C@H](O)[C@H](O)[C@H]2O)[C@@H](O)[C@H](O)[C@H]1O)[C@H]1CC[C@]2(C)[C@@H]1[C@H](O)C[C@@H]1[C@@]3(C)CC[C@H](O[C@@H]4O[C@H](CO)[C@@H](O)[C@H](O)[C@H]4O[C@@H]4O[C@H](CO)[C@@H](O)[C@H](O)[C@H]4O)C(C)(C)[C@@H]3CC[C@]12C [Rb2, ginsenoside Rb2]
Percentage of F2 in the reaction product [2]: 50%
Percentage of Rd in the reaction product [2]: 45%
Percentage of F2 in the reaction product [3]: 65%
Percentage of Rd in the reaction product [3]: 35%
Percentage of C—K in the reaction product [1]: 54%
Percentage of F2 in the reaction product [1]: 35%
Percentage of Rd in the reaction product [1]: 18%
Percentage of aglycone in the reaction product [1]: 3%
Percentage of C—K in the reaction product [4]: 54%
Percentage of F2 in the reaction product [4]: 35%
Percentage of Rd in the reaction product [4]: 9%
Percentage of Rh2 in the reaction product [4]: 1%
Percentage of aglycone in the reaction product [4]: 1%
Percentage of C—K in the reaction product ([5]; pH 5, 30° C., 18 hours): 17%
Percentage of F2 in the reaction product ([5]; pH 5, 30° C., 18 hours): 57%
Percentage of Rb2 in the reaction product ([5]; pH 5, 30° C., 18 hours): 7%
Percentage of Rd in the reaction product ([5]; pH 5, 30° C., 18 hours): 13%
Percentage of Rh2 in the reaction product ([5]; pH 5, 30° C., 18 hours): 3%
Percentage of aglycone in the reaction product ([5]; pH 5, 30° C., 18 hours): 3%

CC(C)=CCC[C@](C)(O[C@@H]1O[C@H](CO)[C@@H](O)[C@H](O)[C@H]1O)[C@H]1CC[C@]2(C)[C@@H]1[C@H](O)C[C@@H]1[C@@]3(C)CC[C@H](O)C(C)(C)[C@@H]3CC[C@]12C [C—K, ginsenoside C-K]
Percentage of C—K in the reaction product [4]: 97%
Percentage of aglycone in the reaction product [4]: 3%

[Ca+2] [Ca^++]
effect of metal ion on the enzyme [6]: enhancing effect
effect of metal ion on the enzyme [3]: enhancing effect
effect of metal ions on the enzyme reaction [5]: slightly accelerate the conversion rate

CC(C)=CCC[C@](C)(O)[C@H]1CC[C@]2(C)[C@@H]1[C@H](O)C[C@@H]1[C@@]3(C)CC[C@H](O[C@@H]4O[C@H](CO)[C@@H](O)[C@H](O)[C@H]4O[C@@H]4O[C@H](CO)[C@@H](O)[C@H](O)[C@H]4O)C(C)(C)[C@@H]3CC[C@]12C [Rg3, ginsenoside Rg3]
Percentage of Rg3 in the reaction product [1]: 45%
Percentage of Rh2 in the reaction product [1]: 50%
Percentage of aglycone in the reaction product [1]: 5%
Percentage of Rg3 in the reaction product [4]: 40%
Percentage of Rh2 in the reaction product [4]: 57%
Percentage of aglycone in the reaction product [4]: 3%
Percentage of Rg3 in the reaction product ([5]; pH 5, 30° C., 18 hours): 30%
Percentage of Rh2 in the reaction product ([5]; pH 5, 30° C., 18 hours): 53%
Percentage of aglycone in the reaction product ([5]; pH 5, 30° C., 18 hours): 17%
conversion rate from Rg3 to Rh2 ([5]; pH 5, 30° C., 18 hours): over 50%

[Cu+2] [Cu^++]
effect of metal ion on the enzyme activity [2]: inhibitory effect
effect of metal ion on the enzyme [6]: inhibitory effect
effect of metal ion on the enzyme [3]: inhibitory effect
effect of metal ions on the enzyme reaction [5]: inhibit the reaction
